Experimental data: US20170362243A1, “BIARYLETHER IMIDAZOPYRAZINE BTK INHIBITORS” (MERCK SHARP & DOHME CORP., priority 2014, published 2017)
pIC50: −log10 of the molar value.

Target: T1, BTK enzyme (recombinant full-length BTK, hBTK) (Homo sapiens, UniProt Q06187)
T1 construct: recombinant protein from baculovirus-transfected Sf9 cells: full-length BTK, 6HIS-tag cleaved; 6HIS (cleaved yes); made in house; host or cells: baculovirus-transfected Sf9 cells
Assay: Btk enzyme activity assay, LANCE TR-FRET
Format: biochemical
Details: 50 pM hBTK, 2 μM biotin-A5-peptide, 25 μM ATP, 60 minute compound & enzyme incubation, read-out: BTK binding IC50
Description: BTK enzymatic activity was determined with the LANCE (Lanthanide Chelate Excite) TR-FRET (Time-resolved fluorescence resonance energy transfer) assay. In this assay, the potency (IC50) of each compound was determined from an eleven point (1:3 serial dilution; final compound concentration range in assay from 1 μM to 0.017 nM) titration curve using the following outlined procedure. To each well of a black non-binding surface Corning 384-well microplate (Corning Catalog #3820), 5 nL of compound (2000 fold dilution in final assay volume of 10 μL) was dispensed, followed by the addition of 7.5 μL of 1× kinase buffer (50 mM Hepes 7.5, 10 mM MgCl2, 0.01% Brij-35, 1 mM EGTA, 0.05% BSA & 1 mM DTT) containing 5.09 pg/μL (66.67 pM) of BTK enzyme (recombinant protein from baculovirus-transfected Sf9 cells: full-length BTK, 6HIS-tag cleaved). Following a 60 minute compound & enzyme incubation, each reaction was initiated by the addition of 2.5 μL 1× kinase buffer containing 8 μM biotinylated “A5” peptide (Biotin-EQEDEPEGDYFEWLE-NH2) (SEQ.ID.NO.: 1), and 100 μM ATP. The final reaction in each well of 10 μL consists of 50 pM hBTK, 2 μM biotin-A5-peptide, and 25 μM ATP. Phosphorylation reactions were allowed to proceed for 120 minutes. Reactions were immediately quenched by the addition of 20 uL of 1× quench buffer (15 mM EDTA, 25 mM Hepes 7.3, and 0.1% Triton X-100) containing detection reagents (0.626 nM of LANCE-Eu-W1024-anti-phosphoTyrosine antibody, PerkinElmer and 86.8 nM of Streptavidin-conjugated Dylight 650, Dyomics/ThermoFisher Scientific). After 60 minutes incubation with detection reagents, reaction plates were read on a PerkinElmer EnVision plate reader using standard TR-FRET protocol. Briefly, excitation of donor molecules (Eu-chelate:anti-phospho-antibody) with a laser light source at 337 nm produces energy that can be transferred to Dylight-650 acceptor molecules if this donor:acceptor pair is within close proximity. Fluorescence intensity at both 665 nm (acceptor) and 615 nm (donor) are measured and a TR-FRET ratio calculated for each well (acceptor intensity/donor intensity). IC50 values were determined by 4 parameter robust fit of TR-FRET ratio values vs. (Log10) compound concentrations.
The following Table 3 provides specific IC50 values for all the examples. The IC50 values set forth below were determined according to Assay method described above.

T1 sequence (Q06187 whole entry): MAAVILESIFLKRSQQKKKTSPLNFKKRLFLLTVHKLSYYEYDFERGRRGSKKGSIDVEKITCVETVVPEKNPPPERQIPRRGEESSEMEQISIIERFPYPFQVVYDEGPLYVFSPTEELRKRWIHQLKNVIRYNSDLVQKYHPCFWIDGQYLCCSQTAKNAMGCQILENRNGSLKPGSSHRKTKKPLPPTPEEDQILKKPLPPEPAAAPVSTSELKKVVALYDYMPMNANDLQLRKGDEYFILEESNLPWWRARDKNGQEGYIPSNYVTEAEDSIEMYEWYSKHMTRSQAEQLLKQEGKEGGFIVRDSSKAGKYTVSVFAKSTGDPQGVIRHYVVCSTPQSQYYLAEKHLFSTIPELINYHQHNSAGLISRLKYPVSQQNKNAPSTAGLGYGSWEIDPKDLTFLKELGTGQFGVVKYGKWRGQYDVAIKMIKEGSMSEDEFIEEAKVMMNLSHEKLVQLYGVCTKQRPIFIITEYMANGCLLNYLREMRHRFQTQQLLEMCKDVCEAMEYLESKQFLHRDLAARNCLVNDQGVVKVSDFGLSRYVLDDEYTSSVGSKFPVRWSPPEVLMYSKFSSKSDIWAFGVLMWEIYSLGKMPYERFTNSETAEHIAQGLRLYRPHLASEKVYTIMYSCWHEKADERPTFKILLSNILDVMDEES

pIC50 | Compound
8.57 | Nc1nccn2c(N3CCC[C@H](C(=O)O)C3)nc(-c3ccc(Oc4ccccc4)cc3)c12 [Example 1, (S)-1-(8-amino-1-(4-phenoxyphenyl)imidazo[1,5-a]pyrazin-3-yl)piperidine-3-carboxylic acid]
8.62 | C[C@]1(C(=O)O)CCC[C@@H](c2nc(-c3ccc(Oc4ccccc4)cc3)c3c(N)nccn23)C1 [Example 14, (1S,3R)-3-[8-amino-1-(4-phenoxyphenyl)imidazo [1,5-a]pyrazin-3-yl]-1-methylcyclohexane-carboxylic acid]
7.10 | Nc1nccn2c(C3(C(=O)O)CCOCC3)nc(-c3ccc(Oc4ccccc4)cc3)c12 [Example 24, 4-[8-amino-1-(4-phenoxyphenyl)imidazo[1,5-a]pyrazin-3-yl]tetrahydro-2H-pyran-4-carboxylic acid]
